Experimental data from patent EP4205753A1, “ANTIVIRAL PLANT EXTRACT COMPOSITION AND METHOD FOR PREPARING SUCH COMPOSITION” (priority 2021, dated 2023).
Read-outs that look alike come from different tables or passages of the source.

Legend:
[1] = test system: SARS-CoV-2; experiment: microbe, parasite or virus in culture; conditions: Severe acute respiratory syndrome coronavirus 2, Vero C1008, 55 h, read-out: viability in comparison with non-infected cells
[2] = test system: SARS-CoV-2

Compound	viability at 25 µM [1]	cell viability in comparison with non-infected cells ([2]; 1 µM)	cell viability in comparison with non-infected cells ([2]; 10 µM)
CCC(CC)COC(=O)[C@H](C)N[P@](=O)(OC[C@H]1O[C@@](C#N)(c2ccc3c(N)ncnn23)[C@H](O)[C@@H]1O)Oc1ccccc1 [Remdesivir]	97%	–	–
C=C[C@H](OC(C)=O)c1ccc(OC(C)=O)cc1 [AAC, acetoxychavicol acetate]	–	59%	66%
